Laboratory results taken from patent publication US12496298B2, “Natural killer cells” (Imperial College Innovations Limited, priority 2017, dated 2025).
“Also recorded” adds a separate entry of the source.

Test system: HPCs isolated from wild type, E4bp4 knockout and heterozygous mice
Experiment: NK cell production from HPCs isolated from WT, E4bp4 Het and E4bp4 KO mice
Format: cell-based, mouse
Experimental: FIG. 7: HPCs isolated from either wild type (WT), E4bp4 knockout (KO) or heterozygous (Het) mice were cultured with the addition of 5 or 10 μM SR8278. At Day 9, percentage of NK cells was quantified using flow cytometry. Graph showing relative mature mouse NK cell (NK1.1^+ CD3^−) production compared to the ‘No drug’ control in experiments with (A) WT, (B) Het and (C) E4bp4 KO mice. (D) Representative flow cytometry results with percentage of NK cells shown for the addition of 10 μM SR8278. Results were averaged from two experiments with four repeats each and the error bars represent the mean+SD. Asterisks indicate significant differences from the two annotated results (* is P≤0.01 and ** is P≤0.001) based on Mann-Whitney test.
Following the experiment with GSK4112, it was predicted that SR8278 acts through the pathway involving REV-ERB and E4bp4. […] Cell cultures were performed as previously (FIG. 3), where SR8278 was added on Day 2 of the culture and NK cell production was measured by flow cytometry. […]
Cells to be analysed by flow cytometry were passed through 40 μm cell strainers to remove clumps and washed with PBS buffer, centrifuged at 800 g for 2 minutes and resuspended in 100 μl fluorescent activated cell sorting (FACS) buffer (PBS plus 1% BSA) with appropriate fluorochrome conjugated antibodies at a dilution of 1 in 300. […]

## CCOC(=O)C1Cc2ccccc2CN1C(=O)c1ccc(SC)s1 (centres unmarked) [SR8278, 1,2,3,4-Tetrahydro-2-[[5-(methylthio)-2-thienyl]carbonyl]-3-isoquinolinecarboxylic acid ethyl ester]
HPCs from E4bp4 KO mice, regardless of concentration
  percentage of NK cells produced: absent of NK cells; also recorded: no effect
HPCs from WT mice, 5 μM and 10 μM added Day 2
  percentage of NK cells produced compared to 'No drug' control: largest significant increase
